Results from PubChem BioAssay (NCI).
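48-hour exposure; five concentrations; linearly interpolated endpoints. At the GI50, growth is halved. At the TGI there is no net growth.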

What was measured:
Test in all cases: NCI anticancer screen, dose series, 48 h
T-47D breast = tested on: T-47D breast
ACHN renal = tested on: ACHN renal
OVCAR-4 ovarian = tested on: OVCAR-4 ovarian
SNB-19 CNS = tested on: SNB-19 CNS
HOP-62 NSCLC = tested on: HOP-62 NSCLC
RPMI-8226 leukemia = tested on: RPMI-8226 leukemia
BT-549 breast = tested on: BT-549 breast
IGROV1 ovarian = tested on: IGROV1 ovarian
K-562 leukemia = tested on: K-562 leukemia
NCI/ADR-RES ovarian = tested on: NCI/ADR-RES ovarian
OVCAR-5 ovarian = tested on: OVCAR-5 ovarian
SK-MEL-28 melanoma = tested on: SK-MEL-28 melanoma
SK-MEL-5 melanoma = tested on: SK-MEL-5 melanoma
SN12C renal = tested on: SN12C renal
SW-620 colon = tested on: SW-620 colon
786-0 renal = tested on: 786-0 renal
HCT-116 colon = tested on: HCT-116 colon
CCRF-CEM leukemia = tested on: CCRF-CEM leukemia
TK-10 renal = tested on: TK-10 renal
LOX IMVI melanoma = tested on: LOX IMVI melanoma
HL-60(TB) leukemia = tested on: HL-60(TB) leukemia
NCI-H23 lung = tested on: NCI-H23 lung
MOLT-4 leukemia = tested on: MOLT-4 leukemia
SF-539 CNS = tested on: SF-539 CNS
MDA-N = tested on: MDA-N
CAKI-1 renal = tested on: CAKI-1 renal
HCC-2998 colon = tested on: HCC-2998 colon
SK-MEL-2 melanoma = tested on: SK-MEL-2 melanoma
MCF7 breast = tested on: MCF7 breast
SF-295 CNS = tested on: SF-295 CNS
MDA-MB-435 = tested on: MDA-MB-435
SK-OV-3 ovarian = tested on: SK-OV-3 ovarian
DU-145 prostate = tested on: DU-145 prostate
HOP-92 NSCLC = tested on: HOP-92 NSCLC
SF-268 CNS = tested on: SF-268 CNS
OVCAR-8 ovarian = tested on: OVCAR-8 ovarian
M14 melanoma = tested on: M14 melanoma
HCT-15 colon = tested on: HCT-15 colon
EKVX NSCLC = tested on: EKVX NSCLC
NCI-H522 lung = tested on: NCI-H522 lung
NCI-H226 lung = tested on: NCI-H226 lung
U251 CNS = tested on: U251 CNS
UACC-62 melanoma = tested on: UACC-62 melanoma
PC-3 prostate = tested on: PC-3 prostate
MDA-MB-231 breast = tested on: MDA-MB-231 breast
UO-31 renal = tested on: UO-31 renal
A498 renal = tested on: A498 renal
COLO 205 colon = tested on: COLO 205 colon
OVCAR-3 ovarian = tested on: OVCAR-3 ovarian
UACC-257 melanoma = tested on: UACC-257 melanoma
A549 NSCLC = tested on: A549 NSCLC
KM12 colon = tested on: KM12 colon
HT29 colon = tested on: HT29 colon
NCI-H460 lung = tested on: NCI-H460 lung
SNB-75 CNS = tested on: SNB-75 CNS
RXF 393 renal = tested on: RXF 393 renal
MALME-3M melanoma = tested on: MALME-3M melanoma
HS 578T breast = tested on: HS 578T breast
SR leukemia = tested on: SR leukemia

## CC(C)(C)OC(=O)Nc1cc(-c2ccccc2)co1
T-47D breast
  TGI: > 100 µM
ACHN renal
  TGI: > 100 µM
OVCAR-4 ovarian
  TGI: > 100 µM
SNB-19 CNS
  TGI: > 100 µM
HOP-62 NSCLC
  TGI: > 100 µM
RPMI-8226 leukemia
  TGI: > 100 µM
BT-549 breast
  TGI: > 100 µM
IGROV1 ovarian
  TGI: > 100 µM
K-562 leukemia
  TGI: > 100 µM
NCI/ADR-RES ovarian
  TGI: > 100 µM
OVCAR-5 ovarian
  TGI: > 100 µM
SK-MEL-28 melanoma
  TGI: > 100 µM
SK-MEL-5 melanoma
  TGI: > 100 µM
SN12C renal
  TGI: > 100 µM
SW-620 colon
  TGI: > 100 µM
786-0 renal
  TGI: > 100 µM
HCT-116 colon
  TGI: > 100 µM
CCRF-CEM leukemia
  TGI: > 100 µM
TK-10 renal
  TGI: > 100 µM
LOX IMVI melanoma
  TGI: > 100 µM
HL-60(TB) leukemia
  TGI: > 100 µM
NCI-H23 lung
  TGI: > 100 µM
MOLT-4 leukemia
  TGI: > 100 µM
SF-539 CNS
  TGI: > 100 µM
MDA-N
  TGI: > 100 µM
CAKI-1 renal
  TGI: > 100 µM
HCC-2998 colon
  TGI: > 100 µM
SK-MEL-2 melanoma
  TGI: > 100 µM
MCF7 breast
  TGI: > 100 µM
SF-295 CNS
  TGI: > 100 µM
MDA-MB-435
  TGI: > 100 µM
SK-OV-3 ovarian
  TGI: > 100 µM
DU-145 prostate
  TGI: > 100 µM
HOP-92 NSCLC
  TGI: 86.8 µM
SF-268 CNS
  TGI: 94.4 µM
OVCAR-8 ovarian
  TGI: > 100 µM
M14 melanoma
  TGI: > 100 µM
HCT-15 colon
  TGI: > 100 µM
EKVX NSCLC
  TGI: > 100 µM
NCI-H522 lung
  TGI: 69.1 µM
NCI-H226 lung
  TGI: > 100 µM
U251 CNS
  TGI: > 100 µM
UACC-62 melanoma
  TGI: > 100 µM
PC-3 prostate
  TGI: > 100 µM
MDA-MB-231 breast
  TGI: > 100 µM
UO-31 renal
  TGI: > 100 µM
A498 renal
  TGI: > 100 µM
COLO 205 colon
  TGI: > 100 µM
OVCAR-3 ovarian
  TGI: > 100 µM
UACC-257 melanoma
  TGI: > 100 µM
A549 NSCLC
  TGI: > 100 µM
KM12 colon
  TGI: > 100 µM

## O=C1CC(c2ccc[nH]2)=NN1c1ccccc1
T-47D breast
  TGI: > 100 µM
ACHN renal
  TGI: > 100 µM
OVCAR-4 ovarian
  TGI: > 100 µM
SNB-19 CNS
  TGI: > 100 µM
HT29 colon
  TGI: > 100 µM
HOP-62 NSCLC
  TGI: > 100 µM
NCI-H460 lung
  TGI: > 100 µM
RPMI-8226 leukemia
  TGI: > 100 µM
BT-549 breast
  TGI: > 100 µM
K-562 leukemia
  TGI: > 100 µM
NCI/ADR-RES ovarian
  TGI: > 100 µM
OVCAR-5 ovarian
  TGI: > 100 µM
SK-MEL-28 melanoma
  TGI: > 100 µM
SK-MEL-5 melanoma
  TGI: > 100 µM
SNB-75 CNS
  TGI: > 100 µM
SN12C renal
  TGI: > 100 µM
SW-620 colon
  TGI: > 100 µM
786-0 renal
  TGI: > 100 µM
HCT-116 colon
  TGI: > 100 µM
CCRF-CEM leukemia
  TGI: > 100 µM
TK-10 renal
  TGI: > 100 µM
LOX IMVI melanoma
  TGI: > 100 µM
HL-60(TB) leukemia
  TGI: > 100 µM
NCI-H23 lung
  TGI: > 100 µM
MOLT-4 leukemia
  TGI: 85.5 µM
SF-539 CNS
  TGI: > 100 µM
MDA-N
  TGI: > 100 µM
CAKI-1 renal
  TGI: > 100 µM
SK-MEL-2 melanoma
  TGI: > 100 µM
SF-295 CNS
  TGI: > 100 µM
MDA-MB-435
  TGI: > 100 µM
SK-OV-3 ovarian
  TGI: > 100 µM
RXF 393 renal
  TGI: > 100 µM
DU-145 prostate
  TGI: > 100 µM
HOP-92 NSCLC
  TGI: > 100 µM
SF-268 CNS
  TGI: > 100 µM
OVCAR-8 ovarian
  TGI: > 100 µM
M14 melanoma
  TGI: > 100 µM
HCT-15 colon
  TGI: > 100 µM
MALME-3M melanoma
  TGI: > 100 µM
EKVX NSCLC
  TGI: > 100 µM
NCI-H522 lung
  TGI: > 100 µM
NCI-H226 lung
  TGI: > 100 µM
U251 CNS
  TGI: > 100 µM
UACC-62 melanoma
  TGI: > 100 µM
PC-3 prostate
  TGI: > 100 µM
MDA-MB-231 breast
  TGI: > 100 µM
UO-31 renal
  TGI: > 100 µM
A498 renal
  TGI: > 100 µM
COLO 205 colon
  TGI: > 100 µM
OVCAR-3 ovarian
  TGI: > 100 µM
UACC-257 melanoma
  TGI: > 100 µM
A549 NSCLC
  TGI: > 100 µM
KM12 colon
  TGI: > 100 µM

## CN(C)CCCN=c1cc2c(=O)n(CCCN(C)C)c(=O)c3c(NCCCN(C)C)cc4c(O)n(CCCN(C)C)c(=O)c1c4c3-2
T-47D breast
  GI50: 2.35 µM
  TGI: 16.9 µM
ACHN renal
  GI50: 0.736 µM
  TGI: 12.4 µM
OVCAR-4 ovarian
  GI50: 1.83 µM
  TGI: 7.9 µM
SNB-19 CNS
  GI50: 1.51 µM
  TGI: 19.7 µM
HT29 colon
  GI50: 0.573 µM
  TGI: 3.58 µM
HOP-62 NSCLC
  GI50: 0.657 µM
  TGI: 5.19 µM
NCI-H460 lung
  GI50: 0.395 µM
  TGI: 1.86 µM
RPMI-8226 leukemia
  GI50: 4.18 µM
  TGI: 46.1 µM
BT-549 breast
  GI50: 11.2 µM
  TGI: 31.4 µM
IGROV1 ovarian
  GI50: 2.34 µM
  TGI: 8.29 µM
K-562 leukemia
  GI50: 2.13 µM
  TGI: > 100 µM
NCI/ADR-RES ovarian
  GI50: 12.3 µM
  TGI: > 100 µM
OVCAR-5 ovarian
  GI50: 1.12 µM
  TGI: 4.09 µM
SK-MEL-28 melanoma
  GI50: 1.96 µM
  TGI: 4.79 µM
SK-MEL-5 melanoma
  GI50: 3.03 µM
  TGI: 11.2 µM
SNB-75 CNS
  GI50: 1.25 µM
  TGI: 3.68 µM
SN12C renal
  GI50: 1.73 µM
  TGI: 30.9 µM
HS 578T breast
  GI50: 1.13 µM
  TGI: 5.03 µM
SW-620 colon
  GI50: 0.79 µM
  TGI: 15.6 µM
786-0 renal
  GI50: 6.36 µM
  TGI: 87.4 µM
HCT-116 colon
  GI50: 0.582 µM
  TGI: 5.52 µM
CCRF-CEM leukemia
  GI50: 5.84 µM
  TGI: 54.8 µM
TK-10 renal
  GI50: 1.55 µM
  TGI: 5.95 µM
SR leukemia
  GI50: 8.39 µM
  TGI: 56 µM
LOX IMVI melanoma
  GI50: 2.01 µM
  TGI: 8.36 µM
HL-60(TB) leukemia
  GI50: 15.1 µM
  TGI: 60.5 µM
NCI-H23 lung
  GI50: 5.39 µM
  TGI: 25.5 µM
MOLT-4 leukemia
  GI50: 7.11 µM
  TGI: 98.8 µM
SF-539 CNS
  GI50: 2.33 µM
  TGI: 11 µM
CAKI-1 renal
  GI50: 6.21 µM
  TGI: 29.4 µM
HCC-2998 colon
  GI50: 5.68 µM
  TGI: 22.9 µM
SK-MEL-2 melanoma
  GI50: 1.37 µM
  TGI: 5.08 µM
MCF7 breast
  GI50: 0.409 µM
  TGI: 9.4 µM
SF-295 CNS
  GI50: 1.1 µM
  TGI: 9 µM
MDA-MB-435
  GI50: 3.41 µM
  TGI: 14.9 µM
SK-OV-3 ovarian
  GI50: 1.88 µM
  TGI: 6.93 µM
RXF 393 renal
  GI50: 1.77 µM
  TGI: 4.44 µM
DU-145 prostate
  GI50: 2.5 µM
  TGI: 9.51 µM
HOP-92 NSCLC
  GI50: 1.81 µM
  TGI: 14.2 µM
SF-268 CNS
  GI50: 0.964 µM
  TGI: 9.33 µM
OVCAR-8 ovarian
  GI50: 1.03 µM
  TGI: 11.4 µM
M14 melanoma
  GI50: 5.87 µM
  TGI: 19.7 µM
HCT-15 colon
  GI50: 4.3 µM
  TGI: 46.4 µM
MALME-3M melanoma
  GI50: 1.27 µM
  TGI: 5.59 µM
EKVX NSCLC
  GI50: 3.06 µM
  TGI: 21.3 µM
NCI-H522 lung
  GI50: 0.781 µM
  TGI: 2.76 µM
NCI-H226 lung
  GI50: 0.258 µM
  TGI: 4.12 µM
U251 CNS
  GI50: 0.418 µM
  TGI: 11 µM
UACC-62 melanoma
  GI50: 1.75 µM
  TGI: 4.86 µM
PC-3 prostate
  GI50: 2.79 µM
  TGI: 34.1 µM
MDA-MB-231 breast
  GI50: 3.02 µM
  TGI: 16.3 µM
UO-31 renal
  GI50: 2.92 µM
  TGI: 12.9 µM
A498 renal
  GI50: 1.15 µM
  TGI: 3.92 µM
COLO 205 colon
  GI50: 1.03 µM
  TGI: 2.62 µM
OVCAR-3 ovarian
  GI50: 2.26 µM
  TGI: 7.88 µM
UACC-257 melanoma
  GI50: 2.19 µM
  TGI: 7.35 µM
A549 NSCLC
  GI50: 0.525 µM
  TGI: 2.63 µM
KM12 colon
  GI50: 2.36 µM
  TGI: 16.4 µM
